Common to all, as to assay type: cell-based
For experiment [1], the target named is T1, Kir3 channels (Mus musculus, UniProt P48542).
T1 construct: other: patch-clamp; other: 100 mM
T1 sequence (P48542 1-425): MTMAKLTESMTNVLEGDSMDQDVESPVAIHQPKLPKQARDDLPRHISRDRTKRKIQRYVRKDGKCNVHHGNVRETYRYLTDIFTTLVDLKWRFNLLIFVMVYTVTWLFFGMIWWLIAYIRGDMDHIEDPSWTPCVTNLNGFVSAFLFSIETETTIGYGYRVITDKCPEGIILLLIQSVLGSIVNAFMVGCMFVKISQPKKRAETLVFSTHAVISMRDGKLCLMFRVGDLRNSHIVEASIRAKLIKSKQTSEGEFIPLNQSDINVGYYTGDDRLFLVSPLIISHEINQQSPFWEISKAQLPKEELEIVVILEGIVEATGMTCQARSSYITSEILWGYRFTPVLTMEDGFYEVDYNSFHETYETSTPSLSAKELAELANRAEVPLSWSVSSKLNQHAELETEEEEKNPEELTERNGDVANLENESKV
As to the kind of experiment: patch-clamp determination of ion transport activity: activation of Kir3 channels. The conditions noted are these: read-out: Maximal activation of Kir3 channels relative to that of 100 mM EtOH. From the text: (§1) It has been determined that inwardly rectifying potassium (Kir) channels are regulated directly by small molecule alcohol compounds. Three-dimensional crystallographic analysis of Kir channels has elucidated atomic details of binding pocket interactions with 2-methyl-2,4-pentanediol (MPD). MPD inhibits Kir2 channel activity and activates Kir3 channel activity. Amino acid substitutions in this hydrophobic pocket of the channel protein may alter the response to MPD. As determined by patch-clamp determinations of ion transport activity, a racemic mixture of 2-methyl-2,4-pentanediol, (±)MPD, activates Kir3 channels with an EC50 of >200 mM and inhibits Kir2 homotetramer channels with an IC50 of ˜200 mM. […] Bupivacaine inhibits Kir3.1/3.4 and Kir3.1/3.2 channels with an IC50 of ˜20-40 micromolar.
(§2) The following also were observed. Maximal activation of Kir3 channels by 100 mM (±)MPD is 280% that of 100 mM EtOH. Maximal activation of Kir3 channels by 100 mM R(−)2 methyl-2,4-pentanediol is 60% that of 100 mM (±)MPD. Maximal activation of Kir3 channels by 100 mM 3-methyl-1,3,5-pentanetriol is 70% that of 100 mM (±)MPD. Maximal activation of Kir3 channels by 100 mM 2,5-dimethyl-1,2,6-hexanetriol is 70% that of 100 mM (±)MPD. Maximal activation of Kir3 channels by 100 mM (±) 2,4-pentanediol is 50% that of 100 mM (±)MPD.

Experiment [2] relates to Kir3 channels. The description is as above. The conditions noted are these: Kir3 activation or Kir2 inactivation.
Description: as §1, §2

Experiment [3] deals with T2, Kir2 homotetramer channels (Mus musculus, UniProt P35561).
T2 construct: expressed in transfected cells; host or cells: HEK293
Kind of experiment: patch-clamp determination of ion transport activity: inhibition of Kir2 channels (Kir2.1 expressed in HEK293 cells). Conditions: as stated in the detailed description; read-out: IC50 for inhibition of Kir 2.1 channels.
Description: as §1
The effect of MPD on Kir2 channel activity was analyzed further. […] The fractional current remaining is plotted as a function of MPD concentration. The response for each cell was fit with the Hill equation. The average IC50 and Hill coefficients are shown (n=6).

T2 sequence (P35561 whole entry): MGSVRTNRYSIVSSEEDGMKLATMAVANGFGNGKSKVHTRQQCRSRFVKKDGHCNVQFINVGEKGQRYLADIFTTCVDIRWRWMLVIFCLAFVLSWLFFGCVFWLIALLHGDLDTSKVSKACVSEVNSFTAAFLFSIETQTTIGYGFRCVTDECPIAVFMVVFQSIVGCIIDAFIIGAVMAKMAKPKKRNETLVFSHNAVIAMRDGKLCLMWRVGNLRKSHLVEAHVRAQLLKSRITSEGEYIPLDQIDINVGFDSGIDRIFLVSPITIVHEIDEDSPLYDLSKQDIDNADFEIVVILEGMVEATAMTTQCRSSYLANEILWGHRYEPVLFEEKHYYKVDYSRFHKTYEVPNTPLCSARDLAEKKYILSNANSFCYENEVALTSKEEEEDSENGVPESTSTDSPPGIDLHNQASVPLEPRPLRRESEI

For `CC(O)CC(C)(C)O` (racemic) [MPD, 2-methyl-2,4-pentanediol], the Emax at 100000 µM at Kir3 channels [1] worked out at 280%. In addition, in the experiment on Kir3 channels [2], the “time course of inactivation or activation after application” value is recorded as “within seconds”. In experiment [3], the IC50 was approximately 100 mM.
